In BindingDB's records for PubMed 35785990 (Sage Therapeutics, 2022):

Target: Inward rectifier potassium channel 2 (Homo sapiens) (UniProt P63252)
Assay: Inhibition of Kir2.1 (unknown origin) by patch clamp method

Chain of Inward rectifier potassium channel 2 (Homo sapiens) (P63252 whole entry, looked up): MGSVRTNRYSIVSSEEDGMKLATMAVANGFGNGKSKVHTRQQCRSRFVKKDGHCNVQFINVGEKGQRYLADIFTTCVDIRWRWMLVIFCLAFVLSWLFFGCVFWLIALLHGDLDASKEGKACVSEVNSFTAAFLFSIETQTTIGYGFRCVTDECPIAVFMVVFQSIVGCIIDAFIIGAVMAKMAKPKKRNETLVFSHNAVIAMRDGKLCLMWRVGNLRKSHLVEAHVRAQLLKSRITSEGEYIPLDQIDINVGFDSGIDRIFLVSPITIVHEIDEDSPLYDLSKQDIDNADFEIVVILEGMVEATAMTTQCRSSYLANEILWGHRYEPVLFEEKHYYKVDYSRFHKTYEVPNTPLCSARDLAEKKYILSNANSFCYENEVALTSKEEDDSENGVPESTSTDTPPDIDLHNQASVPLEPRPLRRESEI

IC50: > 30 µM
Compound: C[C@H](CC[C@](C)(O)C(F)(F)F)[C@H]1CC[C@H]2[C@@H]3CC=C4C[C@@](C)(O)CC[C@]4(C)[C@H]3CC[C@]12C [Dalzanemdor]
